We go through 18 compounds from ChEMBL document CHEMBL1135718, “CoMFA and CoMSIA 3D QSAR and docking studies on conformationally-restrained cinnamoyl HIV-1 integrase inhibitors: exploration of a binding mode at the active site” (J Med Chem, 2002).

SMILES strings stand for the structures. pIC50: −log10 of the molar value.

The experiment has as its target Human immunodeficiency virus type 1 integrase (Human immunodeficiency virus 1, UniProt Q7ZJM1). The experiment is described as follows: Inhibitory activity against HIV-1 Integrase (HIV-1-IN).

Chain of Human immunodeficiency virus type 1 integrase (Q7ZJM1 whole entry): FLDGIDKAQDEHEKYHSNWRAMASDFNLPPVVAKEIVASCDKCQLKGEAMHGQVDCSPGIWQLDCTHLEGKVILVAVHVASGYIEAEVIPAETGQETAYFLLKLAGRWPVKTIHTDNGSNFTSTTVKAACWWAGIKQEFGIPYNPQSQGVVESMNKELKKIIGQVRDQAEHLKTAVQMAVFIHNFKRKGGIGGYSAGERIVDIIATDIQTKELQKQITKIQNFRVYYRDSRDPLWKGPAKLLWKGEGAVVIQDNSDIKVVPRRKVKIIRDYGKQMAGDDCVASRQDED

Take `O=C(/C=C/c1ccc(O)c(O)c1)CCc1ccccc1`: the pIC50 is 4.00. As for `O=C(/C=C/c1ccc(O)cc1)c1ccc(O)cc1O` [ISOLIQUIRITIGENIN], the figure is 4.00; as for `COc1ccc(/C=C/C(=O)OCCc2ccccc2)cc1OC`, 4.00; as for `O=C(/C=C(O)/C=C/c1ccccc1)/C=C/c1ccccc1`, 4.00. `COc1cc(/C=C/C(=O)OCCc2ccccc2)ccc1O` gave a pIC50 of 4.00. As for `COOC(=O)c1cc2ccc(O)c(O)c2cn1`, the figure is 4.85; as for `O=C(/C=C/c1ccc(F)c(F)c1)OCCc1ccccc1`, 4.00.

Compound `COOC(=O)c1ccc2c(O)c(O)ccc2c1` gave a pIC50 of 5.10. In turn, `O=C(NCc1ccccc1)c1cc2cc(O)c(O)cc2cn1` gave a pIC50 of 4.00.

As to `O=C(/C=C/c1ccc(O)cc1)/C=C/c1ccc(O)cc1`, the pIC50 is 4.00. The figure for `COc1ccc(/C=C/C(=O)/C=C/c2ccc(OC)c(OC)c2)cc1OC` is 4.00; for `COOC(=O)c1cc2cc(O)c(O)cc2cn1` it is 4.00; for `O=C(/C=C/c1ccc(O)cc1)CC(=O)/C=C/c1ccc(O)cc1` [BISDEMETHOXYCURCUMIN] it is 4.00. On to `O=C(/C=C/c1cc(O)ccc1O)OCCc1ccccc1`, for which the pIC50 is 4.00. As for `CCOC(=O)/C=C/c1ccc(O)c(O)c1` [ETHYL CAFFEATE], the figure is 4.00; as for `COC(=O)/C=C/c1ccc(O)c(O)c1` [METHYLCAFFEATE], 4.00. As for `COc1cc(/C=C2\CCC/C(=C\c3ccc(O)c(OC)c3)C2=O)ccc1O` [CYCLOVALONE], the figure is 4.00. As for `COc1ccc(/C=C/C(=O)/C=C(O)/C=C/c2ccc(OC)c(OC)c2)cc1OC`, the figure is 4.00.

As a reminder, the pIC50 is the negative decadic logarithm of the IC50, by convention in mol/L.
